From patent EP4741392A1, “1H-PYRAZOLO[4,3-C]PYRIDINE COMPOUND, AND COMPOSITION THEREOF AND USE THEREOF” (Shenzhen TargetRx Co., Ltd., priority 2023, dated 2025) come the findings set out here.

Bounds are passed on as bounds.

In general, IC50 refers to the concentration at which inhibition is half-maximal. A higher IC50 goes with lower potency.

For the experiment, the system named is Ba/F3-ETV6-BTK-T474I cells. As to the kind of experiment: Viability assay of Ba/F3-ETV6-BTK-T474I cells (CTG). In kind it is cell-based. As to conditions: Mus musculus, BaF3, cell viability, 72 hours. The method, then:
The in vitro antiproliferative activity of the compounds of the present disclosure against Ba/F3-ETV6-BTK-T474I cells was assayed using CTG luminescent cell viability assay. The specific assay methods were as follows: • a) Ba/F3-ETV6-BTK-T474I cells were cultured at 37 °C and 5% CO2 in complete medium [RPMI 1640 (supplier Gibco, product number 22400-089) + 10% FBS (supplier Gibco, product number 10091-148)]. • b) Cells in the logarithmic growth phase were harvested, and cell counting was performed using a […]. Trypan blue exclusion test was used to determine the cell viability, ensuring that the cell viability was above 90%. • c) Cell density was adjusted using complete culture medium. Then, the cells were inoculated at 90 µL, a total of 3000 cells per well in a 96-well cell culture plate (supplier: Shanghai Jing An Biotechnology Co., Ltd., product number J09601). • d) The cells in the 96-well plate were cultured at 37 °C and 5% CO2. • e) A 10-fold drug solution was prepared, and then 10 µL of each serially diluted compound was transferred to the corresponding assay wells of the 96-well cell plate so that the final assay concentration was 1000 nM, with 9 concentrations, 3.16-fold dilutions, and triplicates for each drug concentration. • f) The cells in the 96-well plate with the drug added were cultured at 37 °C and 5% CO2 for another 72 hours. Then, CTG analysis was performed. • g) The CTG reagent was melted, and the cell plate was equilibrated at room temperature for 30 minutes. • h) An equal volume of CTG solution was added to each well. • i) The plate was shaken on an orbital shaker for 5 minutes to lyse the cells. • j) The cell plate was placed at room temperature for 20 minutes to stabilize the luminescent signal. • k) The luminescent signal values were read and the data were collected.
The data were analyzed using GraphPad Prism 7.0 software. Nonlinear S-curve regression was used to fit the data to give a dose-response curve, from which the IC50 values were calculated. [formula]
Compound `COc1ccc(F)cc1C(=O)NCc1ccc(-c2ncc(-c3ccc(C)cn3)c3[nH]nc(N)c23)cc1` [Example 37, N-(4-(3-amino-7-(5-methylpyridin-2-yl)-1H-pyrazolo[4,3-c]pyridin-4-yl)benzyl)-5-fluoro-2-methoxybenzamide] yielded an IC50 of 10 to 50 nM.
The figure for `COc1ccc(F)cc1C(=O)NCc1ccc(-c2ncc(-c3ccc(C4COC4)cn3)c3[nH]nc(N)c23)cc1` [Example 43, N-(4-(3-amino-7-(5-(oxetan-3-yl)pyridin-2-yl)-1H-pyrazolo[4,3-c]pyridin-4-yl)benzyl)-5-fluoro-2-methoxybenzamide] is 5 to 10 nM; for `COc1ccc(F)cc1C(=O)NCc1ccc(-c2ncc(-c3cc4ncccn4n3)c3[nH]nc(N)c23)cc1` [Example 44, N-(4-(3-amino-7-(pyrazolo[1,5-a]pyrimidin-2-yl)-1H-pyrazolo[4,3-c]pyridin-4-yl)benzyl)-5-fluoro-2-methoxybenzamide] it is 5 to 10 nM.
The figure for `COc1ccc(F)cc1C(=O)NCc1ccc(-c2ncc(-c3ccn4nccc4n3)c3[nH]nc(N)c23)cc1` [Example 46, N-(4-(3-amino-7-(pyrazolo[1,5-a]pyrimidin-5-yl)-1H-pyrazolo[4,3-c]pyridin-4-yl)benzyl)-5-fluoro-2-methoxybenzamide] is more than 50 nM; for `COc1ccc(F)cc1C(=O)NCc1ccc(-c2ncc(-c3ccc(C(=O)N4CCOCC4)cn3)c3[nH]nc(N)c23)cc1` [Example 52, N-(4-(3-amino-7-(5-(morpholine-4-carbonyl)pyridin-2-yl)-1H-pyrazolo[4,3-c]pyridin-4-yl)benzyl)-5-fluoro-2-methoxybenzamide] it is not above 5 nM.
As for `COc1ccc(F)cc1C(=O)NCc1ccc(-c2ncc(-c3ccc(C(=O)N4C[C@H](C)O[C@@H](C)C4)cn3)c3[nH]nc(N)c23)cc1` [Example 53, N-(4-(3-amino-7-(5-((2S,6S)-2,6-dimethylmorpholine-4-carbonyl)pyridin-2-yl)-1H-pyrazolo[4,3-c]pyridin-4-yl)benzyl)-5-fluoro-2-methoxybenzamide], the figure is not above 5 nM; as for `COCCOc1ccc(-c2cnc(-c3ccc(CNC(=O)c4cc(F)ccc4OC)cc3)c3c(N)n[nH]c23)nc1` [Example 59, N-(4-(3-amino-7-(5-(2-methoxyethoxy)pyridin-2-yl)-1H-pyrazolo[4,3-c]pyridin-4-yl)benzyl)-5-fluoro-2-methoxybenzamide], 5 to 10 nM.
In turn, `COc1ccc(F)cc1C(=O)NCc1ccc(-c2ncc(-c3ccc(OCCN(C)C)cn3)c3[nH]nc(N)c23)cc1` [Example 60, N-(4-(3-amino-7-(5-(2-(dimethylamino)ethoxy)pyridin-2-yl)-1H-pyrazolo[4,3-c]pyridin-4-yl)benzyl)-5-fluoro-2-methoxybenzamide] displayed a half-inhibitory concentration (IC50) of 5 to 10 nM.
The figure for `COc1ccc(F)cc1C(=O)NCc1ccc(-c2ncc(-c3ccc(OCCN4CCOCC4)cn3)c3[nH]nc(N)c23)cc1` [Example 61, N-(4-(3-amino-7-(5-(2-morpholinoethoxy)pyridin-2-yl)-1H-pyrazolo[4,3-c]pyridin-4-yl)benzyl)-5-fluoro-2-methoxybenzamide] is not above 5 nM; for `COc1ccc(F)cc1C(=O)NCc1ccc(-c2ncc(-c3ccc(OCCN4CCCC4)cn3)c3[nH]nc(N)c23)cc1` [Example 62, N-(4-(3-amino-7-(5-(2-(pyrrolidin-1-yl)ethoxy)pyridin-2-yl)-1H-pyrazolo[4,3-c]pyridin-4-yl)benzyl)-5-fluoro-2-methoxybenzamide] it is 10 to 50 nM.
As for `COc1ccc(F)cc1C(=O)NCc1ccc(-c2ncc(-c3ccc(C(C)(C)O)cn3)c3[nH]nc(N)c23)cc1` [Example 65, N-(4-(3-amino-7-(5-(2-hydroxypropan-2-yl)pyridin-2-yl)-1H-pyrazolo[4,3-c]pyridin-4-yl)benzyl)-5-fluoro-2-methoxybenzamide], the figure is not above 5 nM.
The figure for `COc1ccc(F)cc1C(=O)NCc1ccc(-c2ncc(-c3ccc(CN4CCCCC4)cn3)c3[nH]nc(N)c23)cc1` [Example 66, N-(4-(3-amino-7-(5-(piperidin-1-ylmethyl)pyridin-2-yl)-1H-pyrazolo[4,3-c]pyridin-4-yl)benzyl)-5-fluoro-2-methoxybenzamide] is not above 5 nM; for `COc1ccc(F)cc1C(=O)NCc1ccc(-c2ncc(-c3ccc(CN4CCOCC4)cn3)c3[nH]nc(N)c23)cc1` [Example 67, N-(4-(3-amino-7-(5-(morpholinomethyl)pyridin-2-yl)-1H-pyrazolo[4,3-c]pyridin-4-yl)benzyl)-5-fluoro-2-methoxybenzamide] it is not above 5 nM; for `COc1ccc(F)cc1C(=O)NCc1ccc(-c2ncc(-c3ccc(CN4CCN(C)CC4)cn3)c3[nH]nc(N)c23)cc1` [Example 68, N-(4-(3-amino-7-(5-((4-methylpiperazin-1-yl)methyl)pyridin-2-yl)-1H-pyrazolo[4,3-c]pyridin-4-yl)benzyl)-5-fluoro-2-methoxybenzamide] it is not above 5 nM.
Compound `COc1ccc(F)cc1C(=O)NCc1ccc(-c2ncc(-c3cc4ccccn4n3)c3[nH]nc(N)c23)cc1` [Example 69, N-(4-(3-amino-7-(pyrazolo[1,5-a]pyridin-2-yl)-1H-pyrazolo[4,3-c]pyridin-4-yl)benzyl)-5-fluoro-2-methoxybenzamide] registered an IC50 of 10 to 50 nM.
As for `COc1ccc(F)cc1C(=O)NCc1ccc(-c2ncc(-c3cc4n(n3)CCN(C)C4)c3[nH]nc(N)c23)cc1` [Example 71, N-(4-(3-amino-7-(5-methyl-4,5,6,7-tetrahydropyrazolo[1,5-a]pyrazin-2-yl)-1H-pyrazolo[4,3-c]pyridin-4-yl)benzyl)-5-fluoro-2-methoxybenzamide], the figure is 5 to 10 nM; as for `CCN1CCn2nc(-c3cnc(-c4ccc(CNC(=O)c5cc(F)ccc5OC)cc4)c4c(N)n[nH]c34)cc2C1` [Example 72, N-(4-(3-amino-7-(5-ethyl-4,5,6,7-tetrahydropyrazolo[1,5-a]pyrazin-2-yl)-1H-pyrazolo[4,3-c]pyridin-4-yl)benzyl)-5-fluoro-2-methoxybenzamide], 5 to 10 nM.
As for `COc1ccc(F)cc1C(=O)NCc1ccc(-c2ncc(-c3ccc(N4CCN(C)C[C@@H]4C)cn3)c3[nH]nc(N)c23)cc1` [Example 74, (S)-N-(-4-(3-amino-7-(5-(2,4-dimethylpiperazin-1-yl)pyridin-2-yl) 1H-pyrazolo[4,3-c]pyridin-4-yl)benzyl)-5-fluoro-2-methoxybenzamide], the figure is not above 5 nM; as for `COc1ccc(F)cc1C(=O)NCc1ccc(-c2ncc(-c3ccc(N4CCN(C)C[C@H]4C)cn3)c3[nH]nc(N)c23)cc1` [Example 75, (R)-N-(-4-(3-amino-7-(5-(2,4-dimethylpiperazin-1-yl)pyridin-2-yl) 1H-pyrazolo[4,3-c]pyridin-4-yl)benzyl)-5-fluoro-2-methoxybenzamide], not above 5 nM.
For the compound `COc1ccc(F)cc1C(=O)NCc1ccc(-c2ncc(-c3ccc(N4CCOCC4)cn3)c3[nH]nc(N)c23)cc1` [Example 76, N-(4-(3-amino-7-(5-morpholinopyridin-2-yl)-1H-pyrazolo[4,3-c]pyridin-4-yl)benzyl)-5-fluoro-2-methoxybenzamide], the half-maximal inhibitory concentration (IC50) is not above 5 nM.
On to `COc1ccc(F)cc1C(=O)NCc1ccc(-c2nc(C3CCOCC3)cc3[nH]nc(N)c23)cc1` [Example 115, N-(4-(3-amino-6-(tetrahydro-2H-pyran-4-yl)-1H-pyrazolo[4,3-c]pyridin-4-yl)benzyl)-5-fluoro-2-methoxybenzamide], for which the IC50 is more than 50 nM.
